One block for each compound: values may come before it.
Legend:
CpomPBP1 = test: Competitive binding assay with 1-NPN fluorescence probe; set-up: species or system Cydia pomonella; conditions: for Kd: wild type CpomPBP1, 2 μM protein, 2 μM 1-NPN, 50 mM Tris-HCl pH 7.0, read-out: dissociation constant (Kd)
Method: (§1) According to the results of virtual screening and commercial availability of the matched semiochemicals, 8 compounds (including Codlemone) were finally subjected to competitive binding assay by taking 1-NPN as the fluorescence probe. All ligands including 1-NPN were dissolved in ethanol of GC grade. […] The fluorescence was measured on a Hitachi F-4600 spectrofluorimeter with a slit width of 5 nm for excitation and emission. The excitation wavelength was decided to be 337 nm and the fluorescence emissions were recorded from 350 to 500 nm. The in vitro binding assays between CpomPBP2 and small molecule compounds were performed in the same way.
(§2) It was assumed that CpomPBP1 (MT and WT) was 100% active and the binding between protein and ligand was 1:1 at saturation. To analyze the obtained data and to calculate the Kd of each ligand, Graphpad Prism software (Graphpad software, Inc.) was employed.

CpomPBP2 = CpomPBP2 (Cydia pomonella, UniProt I3ZNT9); test: as above
Method: as §1, §2

CpomPBP1F12A = test: Competitive binding assay, mutant protein; set-up: species or system Cydia pomonella; conditions: F12A; RTln(Kd-MT/Kd-WT)
Method: as §1
(§3) To test binding ability changes of CpomPBP1 caused by the mutation of each target site, the in vitro binding assays between CpomPBP1 proteins (MT and WT CpomPBP1) and ETrME was implemented according to the part of competitive binding assay.
as §2
(§4) The experimental binding free energy of the complexes formed by ETrME and each mutant was calculated by the equation (1): […]
(§5) In this equation, Kd-MT and Kd-WT are the dissociation constants for mutant and wild CpomPBP1 respectively. R stands for the ideal gas constant and T means the temperature in Kelvin.

CpomPBP1F36A = test: Competitive binding assay, mutant protein; set-up: species or system Cydia pomonella; conditions: F36A; RTln(Kd-MT/Kd-WT)
Method: as §1, §3, §2, §4, §5

CpomPBP1I52A = test: Competitive binding assay, mutant protein; set-up: species or system Cydia pomonella; conditions: I52A; RTln(Kd-MT/Kd-WT)
Method: as §1, §3, §2, §4, §5

CpomPBP1I94A = test: Competitive binding assay, mutant protein; set-up: species or system Cydia pomonella; conditions: I94A; RTln(Kd-MT/Kd-WT)
Method: as §1, §3, §2, §4, §5

CpomPBP1W37A = test: Competitive binding assay, mutant protein; set-up: species or system Cydia pomonella; conditions: W37A; RTln(Kd-MT/Kd-WT)
Method: as §1, §3, §2, §4, §5

Chain of CpomPBP2 (I3ZNT9 26-169 limits assumed): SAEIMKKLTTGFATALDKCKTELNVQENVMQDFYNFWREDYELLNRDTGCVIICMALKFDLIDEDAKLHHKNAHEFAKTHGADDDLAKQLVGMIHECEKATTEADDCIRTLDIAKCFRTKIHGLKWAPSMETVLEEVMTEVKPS

Structure (SMILES): CCC=CCC=CCC=CCCCCCCCCCC(=O)OC [ETrME]
Kd (CpomPBP1): 3.14 µM
Kd (CpomPBP2; CpomPBP2, 1-NPN competitive binding, read-out: dissociation constant (Kd)): 8.62 µM
ΔΔGbind-exp (CpomPBP1F12A): 2.80 kcal/mol
ΔΔGbind-exp (CpomPBP1F36A): 3.25 kcal/mol
ΔΔGbind-exp (CpomPBP1I52A): 1.86 kcal/mol
ΔΔGbind-exp (CpomPBP1I94A): 1.4 kcal/mol
ΔΔGbind-exp (CpomPBP1W37A): 3.54 kcal/mol

Structure (SMILES): CCC=CCC=CCC=CCC=CC=CC(O)CCCC(=O)O (racemic) [(±)5-HEPE]
Kd (CpomPBP1): 8.23 µM

Structure (SMILES): C/C=C/C=C/CCCCCCCO [Codlemone, reference compound]
Kd (CpomPBP1): 3.78 µM
binding to CpomPBP2 (in words) (CpomPBP2; titration course, 1-NPN probe): no binding

Now from value to compound:

Kd (CpomPBP1): 12.8 µM
Structure (SMILES): CCCCC/C=C\C/C=C\C/C=C\CCCCCCC(=O)O [Z-8,11,14-Eicosatrienoic acid]

binding to CpomPBP1 (in words) (CpomPBP1; titration 0 to 64 μM ligand, 1-NPN probe): no binding
Structure (SMILES): CCCCC/C=C\C/C=C\CCCCCCCC(=O)O [Linoleic acid]

Reference: article PMC5052595, “Structure-based discovery of potentially active semiochemicals for Cydia pomonella (L.)” (Scientific Reports, 2016)
